Measured values taken from patent publication US9862711B2, “Pyrazine derivatives as phosphatidylinositol 3-kinase inhibitors” (NOVARTIS AG, priority 2014, dated 2018).

target: PI 3-kinase gamma (Homo sapiens (Human), UniProt P48736); assay: Cellular U937 AKT assay (Assay K); assay type: cell-based; details: AKT phosphorylation in U937 monocyte cells stimulated with 10 ng/ml MIP1α; read-out: Assay K PI3Kγ IC50
Method: Cellular U937 AKT Assay for PI 3-Kinase Gamma (K)
The U937 monocyte cell line is maintained in a basal medium of RPMI 1640 supplemented with 10% heat inactivated FCS, 100 U/ml Penicillin, 100 ug/ml streptomycin and 2 mM L-glutamine (Invitrogen). U937 suspension culture is maintained by seeding cells at a density of 0.125×10^6 cells per ml in fresh medium every three or four days. Cells are incubated at 37° C., 5% CO2. Three or four days prior to assay, cells are seeded at a density of 0.25×10^6 cells per ml in a total volume of 40 ml in a T162 culture flask.
Before beginning the cell manipulations described below, the MSD (Meso Scale Discovery) assay plate is blocked by addition of 150 ul/well blocking buffer supplied and incubated with shaking for a minimum of one hour at room temperature. All steps of the assay must be performed quickly, with accurately timed incubation periods and observing temperature controls where indicated.
Cells seeded at 0.25×10^6/ml 3 or 4 days prior to the assay are aspirated, transferred to a 50 ml falcon tube, counted and centrifuged for eight minutes at 300 g at room temperature. Supernatant is aspirated, the cell pellet resuspended and washed once in HBSS (Hank's Balanced Salt Solution) by centrifugation for eight minutes at 300 g at room temperature. The cell pellet is resuspended in HBSS to a concentration of 4×10^6 per ml, and 100 μL of cell suspension added to each well of a flat-bottomed 96-well tissue culture plate. Assay plates are incubated for 1.5 hours at 37° C., 5% CO2 to allow background AKT phosphorylation to reduce before the compound stimulation step.
A 5 mM stock concentration of compound is prepared in 100% DMSO; from this a 1 in 125 dilution is made in HBSS giving a top compound concentration of 40 μM, 0.8% DMSO. Compound titrations are prepared in a fresh flat-bottomed, 96-well plate, by 10-fold serial dilution of 40 uM into HBSS 0.8% DMSO; pipette tips are replaced after each dilution is made. Compound concentrations at this stage are 4-times the final concentration required in the assay plate. Cells are stimulated with compound or HBSS 0.8% DMSO by direct transfer of 50 ul/well from the compound dilution plate. The assay plate containing compound-treated cells is then incubated for 30 minutes at 37° C. A standard plate layout is used for all experiments.
Compound-treated cells, in addition to positive control wells (“max MIP1α”), are stimulated with 50 μL per well of 40 ng/ml MIP1α (R&D Systems catalogue number 270-LD, lyophilized stock reconstituted to 50 μg/ml with PBS 0.1% BSA). Negative control wells (“min HBSS”), are stimulated with 50 μl/well of HBSS in the absence of MIP1α. Final compound concentrations are now diluted 4-fold giving a top concentration of 10 μM; where added, the final concentration of MIP1α is 10 ng/ml. Cells are incubated with MIP1α for 3 minutes, at 37° C., 5% CO2. After the three minute stimulation period, the assay plate is kept ice cold at all times. Assay plates are centrifuged for 2 minutes at 300 g, 4° C. and supernatant is removed by gently inverting, and then blotting the plate on tissue. Cells are then washed by gentle addition of 150 μL/well of ice cold HBSS and centrifugation at 300 g, for 5 minutes at 4° C. Supernatant is aspirated and the plate blotted as described above. The plate is placed on ice and cells are immediately treated with 35 μL per well of ice cold lysis buffer, prepared according to the kit instructions (per assay plate, to 5 ml of Tris lysis buffer add 100 μl of 50× protease inhibitor solution and 50 μl of each 100× phosphatase inhibitor solutions I and II). Plates are incubated on ice for 20 minutes before centrifugation at 841 g for 5 minutes, 4° C.
Block buffer is aspirated from the MSD plate, and the plate washed four times with 300 μl/well Tris wash buffer. 25 μL of cell lysate is then transferred from the assay plate to the washed MSD plate which is sealed and incubated at room temperature for one hour with shaking. […]

Chain of PI 3-kinase gamma (P48736 whole entry): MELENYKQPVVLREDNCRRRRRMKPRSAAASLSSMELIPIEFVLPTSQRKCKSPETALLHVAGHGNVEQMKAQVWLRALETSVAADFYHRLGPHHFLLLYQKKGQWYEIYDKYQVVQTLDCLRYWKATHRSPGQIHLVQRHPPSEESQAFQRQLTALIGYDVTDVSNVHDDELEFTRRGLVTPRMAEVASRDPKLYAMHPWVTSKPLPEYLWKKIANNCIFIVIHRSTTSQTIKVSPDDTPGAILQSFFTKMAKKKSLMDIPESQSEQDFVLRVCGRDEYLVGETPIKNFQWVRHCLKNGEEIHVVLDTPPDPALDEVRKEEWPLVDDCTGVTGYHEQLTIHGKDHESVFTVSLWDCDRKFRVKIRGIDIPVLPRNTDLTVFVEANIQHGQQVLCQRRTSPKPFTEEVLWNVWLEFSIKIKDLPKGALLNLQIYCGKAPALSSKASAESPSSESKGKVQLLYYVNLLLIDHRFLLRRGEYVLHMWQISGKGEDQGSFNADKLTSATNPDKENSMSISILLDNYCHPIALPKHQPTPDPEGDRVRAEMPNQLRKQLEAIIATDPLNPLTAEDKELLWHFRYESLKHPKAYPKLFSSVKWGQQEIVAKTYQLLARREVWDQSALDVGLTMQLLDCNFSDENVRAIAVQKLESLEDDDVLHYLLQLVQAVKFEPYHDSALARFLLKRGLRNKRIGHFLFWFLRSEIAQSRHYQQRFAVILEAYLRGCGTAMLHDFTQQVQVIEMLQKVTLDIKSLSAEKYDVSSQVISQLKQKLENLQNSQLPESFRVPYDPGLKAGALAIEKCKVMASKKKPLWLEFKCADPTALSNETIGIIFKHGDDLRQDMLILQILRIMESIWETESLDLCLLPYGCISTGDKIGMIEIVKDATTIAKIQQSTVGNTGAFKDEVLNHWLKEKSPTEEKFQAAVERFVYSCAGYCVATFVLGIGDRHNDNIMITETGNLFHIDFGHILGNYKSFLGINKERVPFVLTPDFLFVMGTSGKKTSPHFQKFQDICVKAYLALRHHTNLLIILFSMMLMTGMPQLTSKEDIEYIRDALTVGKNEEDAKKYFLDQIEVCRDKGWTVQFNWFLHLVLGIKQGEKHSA

Compound	IC50
Cc1ncc(-c2cncc(-c3cc(S(=O)(=O)NCCCO)ccc3C)n2)s1 [Example 1, N-(3-Hydroxy-propyl)-4-methyl-3-[6-(2-methyl-thiazol-5-yl)-pyrazin-2-yl]-benzenesulfonamide]	329 nM
Cc1ccc(S(=O)(=O)NCC(C)(C)O)cc1-c1cncc(-c2cn(C)nc2C)n1 [Example 2, 3-[6-(1,3-Dimethyl-1H-pyrazol-4-yl)-pyrazin-2-yl]-N-(2-hydroxy-2-methyl-propyl)-4-methyl-benzenesulfonamide]	66 nM
Cc1ccc(S(=O)(=O)NCCC(C)(C)O)cc1-c1cncc(-c2cn(C)nc2C)n1 [Example 3, 3-[6-(1,3-Dimethyl-1H-pyrazol-4-yl)-pyrazin-2-yl]-N-(3-hydroxy-3-methyl-butyl)-4-methyl-benzenesulfonamide]	80 nM
Cc1ccc(S(=O)(=O)NCC2(C)COC2)cc1-c1cncc(-c2cn(C)nc2C)n1 [Example 4, Trans 3-[6-(1,3-Dimethyl-1H-pyrazol-4-yl)-pyrazin-2-yl]-4-methyl-N-(3-methyl-oxetan-3-ylmethyl)-benzenesulfonamide]	54 nM
Cc1ncc(-c2cncc(-c3cc(S(=O)(=O)N[C@H]4CC[C@H](O)CC4)ccc3C)n2)s1 [Example 5, Trans N-(4-Hydroxycyclohexyl)-4-methyl-3-(6-(2-methylthiazol-5-yl)pyrazin-2-yl)benzenesulfonamide]	38 nM
Cc1ccc(S(=O)(=O)NCC(C)(C)CO)cc1-c1cncc(-c2cn(C)nc2C)n1 [Example 8, 3-[6-(1,3-Dimethyl-1H-pyrazol-4-yl)-pyrazin-2-yl]-N-(3-hydroxy-2,2-dimethyl-propyl)-4-methyl-benzenesulfonamide]	96 nM
Cc1ccc(S(=O)(=O)NCCC(C)(C)O)cc1-c1cncc(-c2cnn(CCN3CCOCC3)c2)n1 [Example 9, N-(3-Hydroxy-3-methyl-butyl)-4-methyl-3-{6-[1-(2-morpholin-4-yl-ethyl)-1H-pyrazol-4-yl]-pyrazin-2-yl}-benzenesulfonamide]	599 nM
Cc1ccc(S(=O)(=O)NCCC(C)(C)O)cc1-c1cncc(-c2cn(CCN3CCOCC3)nc2C)n1 [Example 10, N-(3-Hydroxy-3-methyl-butyl)-4-methyl-3-{6-[3-methyl-1-(2-morpholin-4-yl-ethyl)-1H-pyrazol-4-yl]-pyrazin-2-yl}-benzenesulfonamide]	121 nM
Cc1ccc(S(=O)(=O)N[C@H]2CC[C@H](O)CC2)cc1-c1cncc(-c2cccnc2)n1 [Example 11, Trans N-(4-Hydroxy-cyclohexyl)-4-methyl-3-(6-pyridin-3-yl-pyrazin-2-yl)-benzenesulfonamide]	213 nM
